Assays:
D2 receptor = D2 receptor (Homo sapiens (Human), UniProt P14416); experiment: Radioligand binding ([3H]-spiperone) to cloned D2 receptor expressed in HEK-293 EBNA cells; conditions: HEK293 EBNA membranes, 0.7 nM [3H]-spiperone
Description: (§1) HEK293 EBNA cells were transiently transfected with expression plasmids encoding for the human D2 or D3 or for the human 5-HT2A receptor, respectively. The cells were harvested 48 h post-transfection, washed three times with cold PBS and stored at −80° C. prior to use. The pellet was suspended in cold 50 mM Tris-HCl buffer containing 10 mM EDTA (pH 7.4) and was homogenized with a Polytron (Kinematica AG, Basel, Switzerland) for 20-30 sec at 12.000 rpm. After centrifugation at 48.000×g for 30 min at 4° C., the pellet was resuspended in cold 10 mM Tris-HCl buffer containing 0.1 mM EDTA (pH 7.4), homogenized, and centrifuged as above. This pellet was further resuspended in a smaller volume of ice cold 10 mM Tris-HCl buffer containing 0.1 mM EDTA (pH 7.4) and homogenized with a Polytron for 20-30 sec at 12.000 rpm. The protein content of this homogenate was determined with the Bio-Rad (Bradford) Protein Assay (Biorad Laboratories GmbH, München, Germany) according to the instructions of the manufacturer using gamma globulin as the standard. This homogenate was stored at −80° C. in aliquots and thawed immediately prior to use.
(§2) Radioligand Binding Assay
(§3) Aliquots of membrane preparations were thawed at RT, resupended in assay buffer (D2, D3: 50 mM Tris-HCl, 120 mM NaCl, 5 mM MgCl2, 1 mM EDTA, 5 mM KCl, 1.5 mM CaCl2, pH=7.4; 5-HT2A: 50 mM Tris-HCl, 10 mM MgCl2, 1 mM EGTA, pH=7.4), homogenized with a Polytron for 20-30 sec at 12.000 rpm and adjusted to a final concentration of approximately 7.5 μg protein/well (D2, D3) and 15 μg protein/well (5-HT2A), respectively.
The binding affinity (Ki) of the compounds was determined using radioligand binding. […] The nonspecific binding was determined with equally composed reaction mixtures in the presence of 10 μM unlabelled spiperone. Per well 45 μl of Microscint 40 (Perkin Elmer, Schwerzenbach, Switzerland) was added, plates for sealed, shaken for 20 min and counted for 3 min on a Topcount Microplate Scintillation Counter (Canberra Packard SA, Zürich, Switzerland) with quenching correction.
(§4) The CPM value for each duplicate of a concentration of competing compound was averaged (y1), then the % specific binding was calculated according to the equation (((y1−non-specific)/(total binding−non-specific))×100). Graphs were plotted with the % specific binding using XLfit, a curve fitting program that iteratively plots the data using Levenberg-Marquardt algorithm. The single site competition analysis equation used was y=A+((B−A)/(1+((x/C)D))), where y is the % specific binding, A is the minimum y, B is the maximum y, C is the IC50, x is the log 10 of the concentration of the competing compound and D is the slope of the curve (the Hill Coefficient). […] The affinity constant (Ki) was calculated using the Cheng-Prusoff equation Ki=(IC50/1+([L]/Kd), where [L] is the concentration of radioligand and Kd is the dissociation constant of the radioligand at the receptor as determined by the saturation isotherm.

D3 receptor = D3 receptor (Homo sapiens (Human), UniProt P35462); experiment: Radioligand binding ([3H]-spiperone) to cloned D3 receptor expressed in HEK-293 EBNA cells; conditions: HEK293 EBNA membranes, 0.5 nM [3H]-spiperone
Description: as §1, §2, §3
The binding affinity (Ki) of the compounds was determined using radioligand binding. […] At the end of the incubation, the reaction mixtures were filtered on to unifilter 96-well white microplates with bonded GF/C filters (Packard BioScience, Zürich, Switzerland; preincubated for 1 h in 0.1% polyethylenimine (PEI) in assay buffer) with a Filtermate 196 harvester (Packard BioScience) and washed 3 times with cold assay buffer. The nonspecific binding was determined with equally composed reaction mixtures in the presence of 10 μM unlabelled spiperone. Per well 45 μl of Microscint 40 (Perkin Elmer, Schwerzenbach, Switzerland) was added, plates for sealed, shaken for 20 min and counted for 3 min on a Topcount Microplate Scintillation Counter (Canberra Packard SA, Zürich, Switzerland) with quenching correction.
as §4

Chain of D2 receptor (P14416 whole entry): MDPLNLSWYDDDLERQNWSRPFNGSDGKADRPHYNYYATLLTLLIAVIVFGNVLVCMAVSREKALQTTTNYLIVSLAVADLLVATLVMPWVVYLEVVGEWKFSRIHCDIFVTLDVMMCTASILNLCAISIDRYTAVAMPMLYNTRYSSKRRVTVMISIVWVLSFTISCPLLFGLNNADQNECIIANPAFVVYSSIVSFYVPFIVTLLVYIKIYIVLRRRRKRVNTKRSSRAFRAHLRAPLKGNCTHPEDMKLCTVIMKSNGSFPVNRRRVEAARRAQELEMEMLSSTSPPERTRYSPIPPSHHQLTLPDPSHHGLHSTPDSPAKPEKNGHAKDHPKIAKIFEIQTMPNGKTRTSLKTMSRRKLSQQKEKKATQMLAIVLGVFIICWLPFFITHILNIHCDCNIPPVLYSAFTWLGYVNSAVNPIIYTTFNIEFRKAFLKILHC
Chain of D3 receptor (P35462 whole entry): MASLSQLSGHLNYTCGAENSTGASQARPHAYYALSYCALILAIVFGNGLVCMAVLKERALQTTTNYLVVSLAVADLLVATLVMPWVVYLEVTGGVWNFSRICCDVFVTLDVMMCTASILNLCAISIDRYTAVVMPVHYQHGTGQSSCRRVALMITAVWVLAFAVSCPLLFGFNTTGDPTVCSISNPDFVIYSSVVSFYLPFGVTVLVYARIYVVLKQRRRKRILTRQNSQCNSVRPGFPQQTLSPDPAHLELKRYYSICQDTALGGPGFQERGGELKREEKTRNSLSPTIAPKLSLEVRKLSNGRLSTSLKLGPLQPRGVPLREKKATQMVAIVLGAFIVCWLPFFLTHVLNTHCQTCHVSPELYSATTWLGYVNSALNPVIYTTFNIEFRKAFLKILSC

Ki (D2 receptor)	Ki (D3 receptor)	Structure (SMILES)
0.22 µM		O=C(C[C@@H]1CCCCO1)N[C@H]1CC[C@H](CCN2CCN(c3cccc4c3OCO4)CC2)CC1 (single isomer, unassigned) [Example 30, Trans-N-{4-[2-(4-Benzo[1,3]dioxol-4-yl-piperazin-1-yl)-ethyl]-cyclohexyl}-2-(S) or (R)-tetrahydro-pyran-2-yl-acetamide]
0.31 µM		O=C(C[C@H]1CCCCO1)N[C@H]1CC[C@H](CCN2CCN(c3cccc4c3OCO4)CC2)CC1 (single isomer, unassigned) [Example 31, Trans-N-{4-[2-(4-Benzo[1,3]dioxol-4-yl-piperazin-1-yl)-ethyl]-cyclohexyl}-2-(R) or (S)-tetrahydro-pyran-2-yl-acetamide]
0.25 µM	0.0214 µM	COC(C)C(=O)N[C@H]1CC[C@H](CCN2CCN(c3cccc4c3OCO4)CC2)CC1 (stereo in doubt) [Example 25, Trans(S)—N-{4-[2-(4-Benzo[1,3]dioxol-4-yl-piperazin-1-yl)-ethyl]-cyclohexyl}-2-methoxy-propionamide]
0.15 µM	0.0049 µM	COC(C)C(=O)N[C@H]1CC[C@H](CCN2CCN(c3cccc4c3OCO4)CC2)CC1 (stereo in doubt) [Example 26, Trans(R)—N-{4-[2-(4-Benzo[1,3]dioxol-4-yl-piperazin-1-yl)-ethyl]-cyclohexyl}-2-methoxy-propionamide]
0.0673 µM	0.00115 µM	CC(=O)N[C@H]1CC[C@H](CCN2CCN(c3cccc4c3OCO4)CC2)CC1 [Example 1, Trans-N-{4-[2-(4-Benzo[1,3]dioxol-4-yl-piperazin-1-yl)-ethyl]-cyclohexyl}-acetamide]
0.173 µM	0.00188 µM	COCCC(=O)N[C@H]1CC[C@H](CCN2CCN(c3cccc4c3OCO4)CC2)CC1 [Example 2, Trans-N-{4-[2-(4-Benzo[1,3]dioxol-4-yl-piperazin-1-yl)-ethyl]-cyclohexyl}-3-methoxy-propionamide]
0.189 µM	0.0031 µM	O=C(CC1CCCO1)N[C@H]1CC[C@H](CCN2CCN(c3cccc4c3OCO4)CC2)CC1 (stereo partly drawn) [Example 6, Trans-N-{4-[2-(4-Benzo[1,3]dioxol-4-yl-piperazin-1-yl)-ethyl]-cyclohexyl}-2-(tetrahydro-furan-2-yl)-acetamide]
0.0745 µM	0.00128 µM	CCC(=O)N[C@H]1CC[C@H](CCN2CCN(c3cccc4c3OCO4)CC2)CC1 [Example 7, Trans-N-{4-[2-(4-Benzo[1,3]dioxol-4-yl-piperazin-1-yl)-ethyl]-cyclohexyl}-propionamide]
0.142 µM	0.00123 µM	O=C(CC1CC1)N[C@H]1CC[C@H](CCN2CCN(c3cccc4c3OCO4)CC2)CC1 [Example 8, Trans-N-{4-[2-(4-Benzo[1,3]dioxol-4-yl-piperazin-1-yl)-ethyl]-cyclohexyl}-2-cyclopropyl-acetamide]
0.238 µM	0.00437 µM	COCC(=O)N[C@H]1CC[C@H](CCN2CCN(c3cccc4c3OCO4)CC2)CC1 [Example 9, Trans-N-{4-[2-(4-Benzo[1,3]dioxol-4-yl-piperazin-1-yl)-ethyl]-cyclohexyl}-2-methoxy-acetamide]
0.184 µM	0.00169 µM	O=C(CO)N[C@H]1CC[C@H](CCN2CCN(c3cccc4c3OCO4)CC2)CC1 [Example 10, Trans-N-{4-[2-(4-Benzo[1,3]dioxol-4-yl-piperazin-1-yl)-ethyl]-cyclohexyl}-2-hydroxy-acetamide]
0.269 µM	0.00999 µM	O=C(N[C@H]1CC[C@H](CCN2CCN(c3cccc4c3OCO4)CC2)CC1)c1ccccc1 [Example 11, Trans-N-{4-[2-(4-Benzo[1,3]dioxol-4-yl-piperazin-1-yl)-ethyl]-cyclohexyl}-benzamide]
0.0685 µM	0.00129 µM	COC(=O)N[C@H]1CC[C@H](CCN2CCN(c3cccc4c3OCO4)CC2)CC1 [Example 12, Trans-{4-[2-(4-Benzo[1,3]dioxol-4-yl-piperazin-1-yl)-ethyl]-cyclohexyl}-carbamic acid methyl ester]
0.314 µM	0.00134 µM	Cc1cc(CC(=O)N[C@H]2CC[C@H](CCN3CCN(c4cccc5c4OCO5)CC3)CC2)on1 [Example 13, Trans-N-{4-[2-(4-Benzo[1,3]dioxol-4-yl-piperazin-1-yl)-ethyl]-cyclohexyl}-2-(3-methyl-isoxazol-5-yl)-acetamide]
0.076 µM	0.00091 µM	N#CCC(=O)N[C@H]1CC[C@H](CCN2CCN(c3cccc4c3OCO4)CC2)CC1 [Example 14, Trans-N-{4-[2-(4-Benzo[1,3]dioxol-4-yl-piperazin-1-yl)-ethyl]-cyclohexyl}-2-cyano-acetamide]
0.16 µM	0.00348 µM	O=C(CC1(O)CCCCC1)N[C@H]1CC[C@H](CCN2CCN(c3cccc4c3OCO4)CC2)CC1 [Example 15, Trans-N-{4-[2-(4-Benzo[1,3]dioxol-4-yl-piperazin-1-yl)-ethyl]-cyclohexyl}-2-(1-hydroxy-cyclohexyl)-acetamide]
0.0912 µM	0.00157 µM	O=C(CC(F)(F)F)N[C@H]1CC[C@H](CCN2CCN(c3cccc4c3OCO4)CC2)CC1 [Example 16, Trans-N-{4-[2-(4-Benzo[1,3]dioxol-4-yl-piperazin-1-yl)-ethyl]-cyclohexyl}-3,3,3-trifluoro-propionamide]
0.137 µM	0.00181 µM	CC(C)C(=O)N[C@H]1CC[C@H](CCN2CCN(c3cccc4c3OCO4)CC2)CC1 [Example 17, Trans-N-{4-[2-(4-Benzo[1,3]dioxol-4-yl-piperazin-1-yl)-ethyl]-cyclohexyl}-isobutyramide]
0.133 µM	0.00228 µM	CC(C)CC(=O)N[C@H]1CC[C@H](CCN2CCN(c3cccc4c3OCO4)CC2)CC1 [Example 18, Trans-N-{4-[2-(4-Benzo[1,3]dioxol-4-yl-piperazin-1-yl)-ethyl]-cyclohexyl}-3-methyl-butyramide]
0.0849 µM		O=C(N[C@H]1CC[C@H](CCN2CCN(c3cccc4c3OCO4)CC2)CC1)C1(O)CCC1 [Example 35, 1-Hydroxy-cyclobutanecarboxylic acid-trans-N-{4-[2-(4-benzo[1,3]dioxol-4-yl-piperazin-1-yl)-ethyl]-cyclohexyl}-amide]
0.117 µM		O=C(N[C@H]1CC[C@H](CCN2CCN(c3cccc4c3OCO4)CC2)CC1)C1CCCO1 (stereo partly drawn) [Example 44, Tetrahydro-furan-2-carboxylic acid-trans-N-{4-[2-(4-benzo[1,3]dioxol-4-yl-piperazin-1-yl)-ethyl]-cyclohexyl}-amide]
	0.00337 µM	CO[C@H]1CC[C@H](CC(=O)N[C@H]2CC[C@H](CCN3CCN(c4cccc5c4OCO5)CC3)CC2)CC1 [Example 56, Trans-N-{4-[2-(4-Benzo[1,3]dioxol-4-yl-piperazin-1-yl)-ethyl]-cyclohexyl}-2-(4-methoxy-cyclohexyl)-acetamide]
	0.00288 µM	O=S(=O)(N[C@H]1CC[C@H](CCN2CCN(c3cccc4c3OCO4)CC2)CC1)c1ccccc1 [Example 67, N-trans-{4-[2-(4-Benzo[1,3]dioxol-4-yl-piperazin-1-yl)-ethyl]-cyclohexyl}-benzenesulfonamide]
	0.00225 µM	Cn1cnc(S(=O)(=O)N[C@H]2CC[C@H](CCN3CCN(c4cccc5c4OCO5)CC3)CC2)c1 [Example 69, 1-Methyl-1H-imidazole-4-sulfonic acid-trans-N-{4-[2-(4-benzo[1,3]dioxol-4-yl-piperazin-1-yl)-ethyl]-cyclohexyl}-amide]
